Test results taken from patent US20230140972A1, “GLYCEROL GLUCOSIDE-BASED COMPOUND AND COMPOSITION COMPRISING SAME FOR ULTRAVIOLET LIGHT SHIELD OR ANTI-INFLAMMATION” (ATHENA CO., LTD., priority 2020, published 2023).
Where “and” joins values, the source holds several entries; their conditions need not be identical. Equal values may be shown once.

Tests used:
[1] = tested on: IL-6 production in RAW264.7 cells; assay: IL-6 production inhibition using ELISA assay; format: cell-based, mouse; conditions: LPS 10 ng/mL
Experimental: An IL-6 ELISA assay was used to evaluate an IL-6 production inhibition ability of the sample in RAW264.7 cells.
(§1) Specifically, subcultured RAW264.7 cells were aliquoted into a 6-well dish at 1.5×10^6 cells/well and cultured for 24 hours at 37° C. in an incubator containing 5% carbon dioxide, and then a culture media was replaced with a serum-free media. Then, each sample was diluted by concentration and treated onto the cells with LPS (final 10 ng/mL). After culturing for 24 hours, the cell culture medium was recovered and an IL-6 ELISA assay was performed.
(§2) 50 μL of an assay diluent was put into each well, and 50 μL of each of a standard solution and a cell culture solution were added to each well and reacted at room temperature for 2 hours. Thereafter, the reaction solution was removed from each well, washed with a wash buffer, 100 μL of IL-6 conjugate was added, and after reaction at room temperature for 2 hours, the reaction solution was removed from each well and washing is performed with a wash buffer.
(§3) Next, 100 μL of a substrate solution was added and a reaction under light blocking was carried out at room temperature, and then 100 μL of a stop solution was added, and an absorbance was measured at 450 and 570 nm. Dexamethasone was used as a positive control group. After the test was conducted once, an IL-6 production amount was calculated by substituting the absorbance value into a IL-6 standard solution calibration curve, and then the IL-6 production inhibition rate (%) was calculated using Equation 4 below, and expressed as the mean±standard deviation of the experiment.

[2] = tested on: NO production in LPS-treated RAW264.7 cells; assay: Nitric oxide (NO) production inhibition, non-enzymatic method (Griess); format: cell-based; conditions: Mus musculus, LPS 1 μg/mL, read-out: NO production inhibition rate
Experimental: An NO assay was performed to evaluate the nitric oxide (NO) production inhibition ability of the glycerol glucoside-based compound sample (EPS-S).
Specifically, subcultured RAW264.7 cells were aliquoted in a 96-well plate at 1×10^5 cells/well, and cultured for 24 hours at 37° C. in an incubator containing 5% carbon dioxide, and then, a culture media was replaced with a serum-free media. Then, each sample was diluted by concentration, treated onto the cell with LPS (final 1 μg/mL), and after culturing for 24 hours, the cell culture medium and a Griess reagent were reacted, and an absorbance was then measured at 540 nm with a microplate reader. Dexamethasone was used as a positive control group. After the test was conducted once, each absorbance value was substituted into Equation 2 below to obtain the NO production inhibition rate (%), and it was expressed as the mean±standard deviation.

[3] = tested on: total NO production in LPS-treated RAW264.7 cells; assay: Nitric oxide (total NO) production and inhibition, enzymatic method; format: cell-based, mouse; conditions: LPS 1 μg/mL
Experimental: An NO assay was performed to evaluate an amount of nitric oxide (total NO) production and a production inhibition rate of the glycerol glucoside-based compound sample (EPS-S).
Specifically, subcultured RAW264.7 cells were aliquoted into a 96-well plate at 1×10^5 cells/well, and cultured at 37° C. in an incubator containing 5% carbon dioxide for 24 hours, and then a culture media was replaced with a serum-free media. Then, each sample is diluted by concentration and treated onto the cells with LPS (final 1 μg/mL). After culturing for 24 hours, a cell culture medium was treated with nitrate reductase, enzyme cofactor and enhancer to react. A Griess reagent was added and an absorbance was measured at 540 nm with a microplate reader. A total NO production was obtained by substituting the absorbance into a standard nitric oxide calibration curve, and a total NO production inhibition rate (%) was analyzed through Equation 2 and expressed as a mean±standard deviation. Dexamethasone was used as a positive control group.

[4] = tested on: TNF-α production in RAW264.7 cells; assay: TNF-α production inhibition using ELISA assay; format: cell-based; conditions: Mus musculus, LPS 10 ng/mL
Experimental: A TNF-α production inhibition ability of the sample in RAW264.7 cells was evaluated using a TNF-α ELISA assay.
as §1, with “cells/well,” for “cells/well”, “the TNF-α” for “an IL-6”
as §2, with “of TNF-α” for “of IL-6”, “after reacting” for “after reaction”
as §3, with “Thereafter, 100” for “Next, 100”, “once, a TNF-α synthesis” for “once, an IL-6 production”, “a TNF-α” for “a IL-6”, “the TNF-α” for “the IL-6”, “Equation 3” for “Equation 4”

What does the source list for `COCC(COC)OC1OC(CO)C(O)C(O)C1O` (stereo not shown) [EPS-S]?
inhibition at 10 ppm ([1]; Mus musculus, RAW264.7, 24 h, 10 ppm, read-out: IL-6 production inhibition ability): 10.1%; inhibition at 100 ppm ([1]; Mus musculus, RAW264.7, 24 h, 100 ppm, read-out: IL-6 production inhibition ability): 23.8%; inhibition at 500 ppm ([1]; Mus musculus, RAW264.7, 24 h, 500 ppm, read-out: IL-6 production inhibition ability): 36.3%; inhibition at 1000 ppm ([1]; Mus musculus, RAW264.7, 24 h, 1,000 ppm, read-out: IL-6 production inhibition ability): 92.4%; inhibition at 1 ppm ([2]; 24 h, 1 ppm): -5.66%; inhibition at 10 ppm ([2]; 24 h, 10 ppm): 6.1%; inhibition at 100 ppm ([2]; 24 h, 100 ppm): 14.2%; inhibition at 1000 ppm ([2]; 24 h, 1,000 ppm): 30.3%; Total NO production ([3]; 24 h, 100 ppm): 62.07 µM and 62.07 ± 0.48 µM; Total NO production inhibition rate ([3]; 24 h, 100 ppm): −3.85 ± 2.22%; Total NO production ([3]; 24 h, 500 ppm): 59.20 µM and 59.20 ± 0.86 µM; Total NO production ([3]; 24 h, 1000 ppm): 53.38 µM and 53.38 ± 0.18 µM; inhibition at 10 ppm ([3]; Mus musculus, RAW264.7, 24 h, 10 ppm, read-out: Total NO production inhibition rate): -11.3 ± 1.24%; inhibition at 500 ppm ([3]; Mus musculus, RAW264.7, 24 h, 500 ppm (text b176), read-out: Total NO production inhibition rate): -3.84%; inhibition at 1000 ppm ([3]; Mus musculus, RAW264.7, 24 h, 1000 ppm, read-out: Total NO production inhibition rate): 11.2%; inhibition at 10 ppm ([4]; 24 h, 10 ppm, read-out: TNF-α production inhibition ability): 29.7%; inhibition at 100 ppm ([4]; 24 h, 100 ppm, read-out: TNF-α production inhibition ability): 34.9%; inhibition at 500 ppm ([4]; 24 h, 500 ppm, read-out: TNF-α production inhibition ability): 49.7%; inhibition at 1000 ppm ([4]; 24 h, 1,000 ppm, read-out: TNF-α production inhibition ability): 77.6%

Which “IL-6 production inhibition ability” value ([1]; 24 h, 10 Mm (10 μM)) does the source give for `C[C@@H]1C[C@H]2[C@@H]3CCC4=CC(=O)C=C[C@]4(C)[C@@]3(F)[C@@H](O)C[C@]2(C)[C@@]1(O)C(=O)CO` [Dexamethasone] here?
The value was 55.97%.

What about the inhibition at 1 µM ([1]; Mus musculus, RAW264.7, 24 h, 1 μM, read-out: IL-6 production inhibition ability) of the same compound?
Its inhibition at 1 µM is 12.7%.

What about the inhibition at 5 µM ([1]; Mus musculus, RAW264.7, 24 h, 5 μM, read-out: IL-6 production inhibition ability) of the same compound?
The inhibition at 5 µM was 48.4%.

What about the inhibition at 20 µM ([1]; Mus musculus, RAW264.7, 24 h, 20 μM, read-out: IL-6 production inhibition ability) of the same compound?
Its inhibition at 20 µM is 63.3%.

What about the inhibition at 50 µM ([1]; Mus musculus, RAW264.7, 24 h, 50 μM (text b146), read-out: IL-6 production inhibition rate) of the same compound?
The inhibition at 50 µM was 88.7%.

And the inhibition at 10 µM ([2]; 24 h, 10 μM)?
The inhibition at 10 µM was 15.6%.

What about the inhibition at 20 µM ([2]; 24 h, 20 μM) of the same compound?
The inhibition at 20 µM was 18%.

What about the inhibition at 40 µM ([2]; 24 h, 40 μM) of the same compound?
Its inhibition at 40 µM is 27.6%.

What about the inhibition at 80 µM ([2]; 24 h, 80 μM) of the same compound?
The inhibition at 80 µM was 33.8%.

And the “Total NO production” value ([3]; 24 h, 10 μM)?
Its value is 41.15 ± 0.43 µM.

And the “Total NO production” value ([3]; 24 h, 10 μM, listed as dexamethasone)?
Its value is 41.15 µM.

And the “Total NO production” value ([3]; 24 h, 20 μM)?
Its value is 38.84 ± 1.24 µM.

And the “Total NO production” value ([3]; 24 h, 20 μM, listed as dexamethasone)?
Its value is 38.84 µM.

And the “Total NO production” value ([3]; 24 h, 80 μM)?
The value was 37.82 ± 0.75 µM.

And the “Total NO production” value ([3]; 24 h, 80 μM, listed as dexamethasone)?
The value was 37.82 µM.

And the inhibition at 10 µM ([3]; Mus musculus, RAW264.7, 24 h, 10 μM, read-out: Total NO production inhibition rate)?
The inhibition at 10 µM was 42.8%.

What about the inhibition at 20 µM ([3]; Mus musculus, RAW264.7, 24 h, 20 μM, read-out: Total NO production inhibition rate) of the same compound?
The inhibition at 20 µM was 48.7%.

And the inhibition at 80 µM ([3]; Mus musculus, RAW264.7, 24 h, 80 μM, read-out: Total NO production inhibition rate)?
The inhibition at 80 µM was 51.4%.

And the inhibition at 1 µM ([4]; 24 h, 1 μM, read-out: TNF-α production inhibition ability)?
Its inhibition at 1 µM is 13.8%.

What about the inhibition at 5 µM ([4]; 24 h, 5 μM, read-out: TNF-α production inhibition ability) of the same compound?
Its inhibition at 5 µM is 34.7%.

And the inhibition at 10 µM ([4]; 24 h, 10 μM, read-out: TNF-α production inhibition ability)?
Its inhibition at 10 µM is 46.5%.

What about the inhibition at 20 µM ([4]; 24 h, 20 μM, read-out: TNF-α production inhibition ability) of the same compound?
The inhibition at 20 µM was 52.1%.

What about the inhibition at 50 µM ([4]; 24 h, 50 μM (text b137), read-out: TNF-α production inhibition rate) of the same compound?
The inhibition at 50 µM was 65%.

And the inhibition at 80 µM ([4]; 24 h, 80 μM, read-out: TNF-α production inhibition ability)?
Its inhibition at 80 µM is 65.05 ± 0.6%.
